From US20060040871A1, “Bacterial transforming agent” (priority 2003, published 2006)
Where two headings read alike, the source gives them in different places.

Legend:
[1] = test system: MRSA; format: cell-based, Staphylococcus aureus; settings: glycine 0.02M [0.15%]
Description: Stored frozen plasma was pooled from five subjects.
Human plasma may bind or otherwise inactivate foreign substances and good activity in plasma is indicative of good in vivo activity.

[2] = test system: vancomycin- and gentamicin-resistant Enterococcus faecium; assay: microbe, parasite or virus in culture; format: cell-based
Description: The agents of the present invention are not limited to the reversal of resistance in Staphylococcus. The test strains in Table 5 are patient-isolates of vancomycin- and gentamicin-resistant Enterococcus faecium. At the time of isolation, they were commonly resistant to all clinically useable antimicrobial agents.

[3] = test system: MRSA; assay: Screening on Isosensitest agar with incorporated BTA and 10 μg methicillin discs; format: cell-based, Staphylococcus aureus; settings: BTA 0.01-1.0% in Isosensitest agar; 10 μg methicillin discs; reference MRSA (type strain), OMRSA, EMRSA-1, EMRSA-16
Description: To find substances related to GBE that might have increased potency, various substances, including those with additional glycine moieties and benzylates, have been screened. Screening was carried out using Isosensitest agar (Oxoid, UK) into which various levels of potential BTAs were incorporated at levels between 0.01 and 1.0%. The agar with incorporated BTA was then used in the manner of a standard antibiotic sensitivity test using 10 μg methicillin discs. The test organism was inoculated onto the agar surface at a concentration suitable to achieve confluent growth after 18 hours incubation at 30° C. After incubation, zone diameters were compared with that achieved by the control plate (Isosensitest alone) for each test organism.

[4] = test system: MRSA; format: cell-based, Staphylococcus aureus; settings: 2% glycine; only in the presence of glycine
[5] = test system: MRSA; settings: increasing concentrations of glycine in the growth medium; cited from earlier work

With `NCC(=O)O` [Glycine, glycine] the MIC of methicillin ([1]; 5518 (EMRSA-1), +1% human plasma) was 32 µg/mL, the MIC of methicillin ([1]; 5518 (EMRSA-1), no plasma) was 8 µg/mL and the MIC of methicillin ([1]; L277, +1% human plasma) was 32 µg/mL. For the same compound, the MIC of methicillin ([1]; L277, no plasma) was 8 µg/mL, the MIC of methicillin ([1]; L278, +1% human plasma) was 256 µg/mL and the MIC of methicillin ([1]; L278, no plasma) was 64 µg/mL. The MIC of methicillin ([1]; L279, +1% human plasma) was 256 µg/mL, the MIC of methicillin ([1]; L279, no plasma) was 64 µg/mL and the MIC of methicillin ([1]; L280, +1% human plasma) was 64 µg/mL. It also gave an MIC of methicillin ([1]; L280, no plasma) of 16 µg/mL, an MIC of methicillin ([1]; L281, +1% human plasma) of 32 µg/mL and an MIC of methicillin ([1]; L281, no plasma) of 8 µg/mL. For the same compound, the MIC of methicillin ([1]; L282, +1% human plasma) was 256 µg/mL, the MIC of methicillin ([1]; L282, no plasma) was 32 µg/mL and the MIC of methicillin ([1]; L283, +1% human plasma) was 128 µg/mL. For the same compound, the MIC of methicillin ([1]; L283, no plasma) was 32 µg/mL, the MIC of methicillin ([1]; L284, +1% human plasma) was 256 µg/mL and the MIC of methicillin ([1]; L284, no plasma) was 32 µg/mL. For the same compound, the MIC of methicillin ([1]; L285, +1% human plasma) was 256 µg/mL, the MIC of methicillin ([1]; L285, no plasma) was 32 µg/mL and the MIC of methicillin ([1]; L286, +1% human plasma) was 64 µg/mL. For the same compound, the MIC of methicillin ([1]; L286, no plasma) was 32 µg/mL, the MIC of methicillin ([1]; L287, +1% human plasma) was 128 µg/mL and the MIC of methicillin ([1]; L287, no plasma) was 32 µg/mL. For the same compound, the MIC of methicillin ([1]; L288, +1% human plasma) was 128 µg/mL, the MIC of methicillin ([1]; L288, no plasma) was 32 µg/mL and the MIC of methicillin ([1]; L289, +1% human plasma) was 256 µg/mL. It also gave an MIC of methicillin ([1]; L289, no plasma) of 32 µg/mL, an MIC of methicillin ([1]; L290, +1% human plasma) of 128 µg/mL and an MIC of methicillin ([1]; L290, no plasma) of 32 µg/mL. It also gave an MIC of methicillin ([1]; L291, +1% human plasma) of 64 µg/mL, an MIC of methicillin ([1]; L291, no plasma) of 32 µg/mL and an MIC of methicillin ([1]; L292, +1% human plasma) of 256 µg/mL. For the same compound, the MIC of methicillin ([1]; L292, no plasma) was 32 µg/mL, the MIC of methicillin ([1]; L293, +1% human plasma) was 128 µg/mL and the MIC of methicillin ([1]; L293, no plasma) was 32 µg/mL. The MIC of methicillin ([1]; L294, +1% human plasma) was 128 µg/mL, the MIC of methicillin ([1]; L294, no plasma) was 16 µg/mL and the “strains tested achieving the target MIC of vancomycin of 2 mg/l” value ([2]; 0.2M glycine, Table 5) was 50%. For the same compound, the MIC of vancomycin ([2]; ATCC 29212, glycine 0.02M) was 4 µg/mL, the MIC of vancomycin ([2]; ATCC 29212, glycine 0.2M) was 2 µg/mL and the MIC of vancomycin ([2]; BBC, glycine 0.02M) was 16 µg/mL. The MIC of vancomycin ([2]; BBC, glycine 0.2M) was 4 µg/mL, the MIC of vancomycin ([2]; E254, glycine 0.02M) was 16 µg/mL and the MIC of vancomycin ([2]; E254, glycine 0.2M) was 4 µg/mL. It also gave an MIC of vancomycin ([2]; E267, glycine 0.02M) of 16 µg/mL, an MIC of vancomycin ([2]; E267, glycine 0.2M) of 4 µg/mL and an MIC of vancomycin ([2]; E271, glycine 0.02M) of 8 µg/mL. It also gave an MIC of vancomycin ([2]; E271, glycine 0.2M) of 2 µg/mL, an MIC of vancomycin ([2]; E285, glycine 0.02M) of 16 µg/mL and an MIC of vancomycin ([2]; E285, glycine 0.2M) of 2 µg/mL. For the same compound, the MIC of vancomycin ([2]; E297, glycine 0.02M) was 8 µg/mL, the MIC of vancomycin ([2]; E297, glycine 0.2M) was 2 µg/mL and the MIC of vancomycin ([2]; GBC, glycine 0.02M) was 8 µg/mL. It also gave an MIC of vancomycin ([2]; GBC, glycine 0.2M) of 4 µg/mL, an MIC of vancomycin ([2]; S226, glycine 0.02M) of 8 µg/mL and an MIC of vancomycin ([2]; S226, glycine 0.2M) of 4 µg/mL. The MIC of vancomycin ([2]; S227, glycine 0.02M) was 32 µg/mL, the MIC of vancomycin ([2]; S227, glycine 0.2M) was 4 µg/mL and the MIC of vancomycin ([2]; S283, glycine 0.02M) was 8 µg/mL. For the same compound, the MIC of vancomycin ([2]; S283, glycine 0.2M) was 2 µg/mL, the MIC of vancomycin ([2]; S302, glycine 0.02M) was 8 µg/mL and the MIC of vancomycin ([2]; S302, glycine 0.2M) was 4 µg/mL. For the same compound, the MIC of vancomycin ([2]; S315, glycine 0.02M) was 4 µg/mL, the MIC of vancomycin ([2]; S315, glycine 0.2M) was 1 µg/mL and the MIC of vancomycin ([2]; S317, glycine 0.02M) was 32 µg/mL. The MIC of vancomycin ([2]; S317, glycine 0.2M) was 4 µg/mL, the MIC of vancomycin ([2]; S319, glycine 0.02M) was 16 µg/mL and the MIC of vancomycin ([2]; S319, glycine 0.2M) was 4 µg/mL. For the same compound, the MIC of vancomycin ([2]; S333, glycine 0.02M) was 8 µg/mL, the MIC of vancomycin ([2]; S333, glycine 0.2M) was 2 µg/mL and the MIC of vancomycin ([2]; S337, glycine 0.02M) was 4 µg/mL. It also gave an MIC of vancomycin ([2]; S337, glycine 0.2M) of 2 µg/mL, an MIC of vancomycin ([2]; S393, glycine 0.02M) of 8 µg/mL and an MIC of vancomycin ([2]; S393, glycine 0.2M) of 2 µg/mL. The MIC of vancomycin ([2]; S497, glycine 0.02M) was 8 µg/mL, the MIC of vancomycin ([2]; S497, glycine 0.2M) was 2 µg/mL and the MIC of vancomycin ([2]; S556, glycine 0.02M) was 32 µg/mL. For the same compound, the MIC of vancomycin ([2]; S556, glycine 0.2M) was 2 µg/mL, the MIC of vancomycin ([2]; WBC, glycine 0.02M) was 8 µg/mL and the MIC of vancomycin ([2]; WBC, glycine 0.2M) was 4 µg/mL. The “transformation of MRSA (methicillin disc zone diameter versus control plate)” value [3] was “transformed”, the “transformation of MRSA into methicillin-sensitive strains” value [4] was “transformed all MRSA into methicillin-sensitive strains” and the “effect on MIC of methicillin against MRSA” value [5] was “reduces the MIC of methicillin against MRSA”.
